# Reference: patent US9908926B2, “Protein-based molecular temperature switch” (ARIZONA BOARD OF REGENTS ON BEHALF OF ARIZONA STATE …, priority 2014, dated 2018)
# Columns and labels:
# [1] = biological target: TRPM8 protein domain (Homo sapiens, UniProt Q7Z2W7); assay: Activation of TRPM8 by menthol (shift of activation curve); format: biochemical; settings: FIG. 5
# Excerpt: FIG. 3 illustrates the regulation of the ion channel via cold temperature change to an open channel within the protein membrane. The TRPM8 protein domain is weakly voltage-dependant and polymodal in that it can be activated with more than one agonist.
# [2] = system: human bladder cancer cell lines; settings: cited from earlier work
# TRPM8 protein domain, sequence (Q7Z2W7 whole entry, the tested form may be a part): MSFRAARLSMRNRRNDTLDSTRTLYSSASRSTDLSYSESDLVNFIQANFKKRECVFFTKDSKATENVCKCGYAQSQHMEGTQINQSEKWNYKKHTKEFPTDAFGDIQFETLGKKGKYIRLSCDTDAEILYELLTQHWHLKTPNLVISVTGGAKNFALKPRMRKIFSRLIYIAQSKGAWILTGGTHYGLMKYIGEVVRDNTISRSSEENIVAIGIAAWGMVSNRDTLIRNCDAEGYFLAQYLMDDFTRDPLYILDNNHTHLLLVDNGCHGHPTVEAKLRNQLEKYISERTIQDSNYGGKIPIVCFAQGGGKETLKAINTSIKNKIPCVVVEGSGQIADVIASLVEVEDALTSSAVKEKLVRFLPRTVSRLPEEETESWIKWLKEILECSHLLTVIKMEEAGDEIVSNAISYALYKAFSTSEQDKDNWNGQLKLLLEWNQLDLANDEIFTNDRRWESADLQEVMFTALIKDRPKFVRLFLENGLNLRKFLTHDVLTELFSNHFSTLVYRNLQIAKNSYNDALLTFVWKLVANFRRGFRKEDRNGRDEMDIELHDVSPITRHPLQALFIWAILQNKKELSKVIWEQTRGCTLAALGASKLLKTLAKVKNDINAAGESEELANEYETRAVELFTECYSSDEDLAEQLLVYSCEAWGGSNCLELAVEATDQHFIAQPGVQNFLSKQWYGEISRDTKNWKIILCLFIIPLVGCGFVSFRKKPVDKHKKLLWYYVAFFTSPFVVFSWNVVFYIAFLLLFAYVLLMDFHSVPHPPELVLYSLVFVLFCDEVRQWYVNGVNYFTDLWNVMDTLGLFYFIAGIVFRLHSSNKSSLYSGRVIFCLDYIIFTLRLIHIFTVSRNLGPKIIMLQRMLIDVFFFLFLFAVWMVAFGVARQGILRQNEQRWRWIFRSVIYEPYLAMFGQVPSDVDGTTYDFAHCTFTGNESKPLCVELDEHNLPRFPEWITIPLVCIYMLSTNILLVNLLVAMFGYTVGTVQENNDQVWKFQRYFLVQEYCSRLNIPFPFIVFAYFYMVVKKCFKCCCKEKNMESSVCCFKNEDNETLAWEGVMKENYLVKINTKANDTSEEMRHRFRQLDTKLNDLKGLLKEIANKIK
smiles,measurement,setting,value
CC1CCC(C(C)C)C(O)C1 (centres unmarked) [menthol],activation of the TRPM8 protein domain,[1],activates the TRPM8 protein domain by shifting the activation curve
same,cell death,[2],induces cell death in human bladder cancer cell lines
